Non-standard residues stand in square brackets, D forms with d. Residues, ends and D or L forms follow the SMILES beside them.
Key:
GH and IGF-1 secretion = assay: Phase I/II study in healthy male volunteers: GH and IGF-1 secretion; assay type: in vivo, human
Description: The primary objectives of the Phase I/II study were to assess safety and tolerability of escalating doses of the GHRH(1-29)NH2 synthetic analog (Maximal Tolerated Dose—MTD) and to determine the minimal effective dose (MED) of the GHRH(1-29)NH2 synthetic analog in terms of stimulation of GH and IGF-1 secretion. The secondary objectives were to establish the lowest dose of the GHRH(1-29)NH2 synthetic analog that induces maximal response with a single subcutaneous administration into healthy male volunteers, to determine the MED for subsequent studies and to establish the most representative blood sampling time for evaluation of GH secretion profile after GHRH(1-29)NH2 synthetic analog administration to be used in subsequent studies.
It was a crossover single-blinded Phase I/II trial of escalating doses of the GHRH(1-29)NH2 synthetic analog controlled versus placebo. Ten healthy middle-aged male volunteers, between 50 and 55 years old, were recruited. All 10 subjects received a single subcutaneous dose of the GHRH(1-29)NH2 synthetic analog (reconstituted in water for injection), per day for 5 days, in a dose range from 5 to 25 μg/kg of body weight (lower than the maximal dose used to treat GH deficiency in children, which was 30 μg/kg of body weight).
Each volunteer was hospitalized for 6 days. All volunteers were randomized into 5 groups (2 volunteers per group). During the first 24 hours of hospitalization (Day 0), scheduled blood samples were obtained for GH and IGF-1 assessment (GH and IGF-1 baseline sampling) and then from Day 1 until Day 5, following each GHRH(1-29)NH2 synthetic analog or placebo dose administration, according to the established randomization plan.
(§1) Once the volunteers were considered eligible, they were hospitalized for a period of 5 consecutive days. On Day 0 of admission successive samples of blood were taken to perform the basal secretion profile of GH during 24 hours. During 5-day hospitalization period, after the initial blood sampling to determine fasting glucose level, the appropriate dose of the GHRH(1-29)NH2 synthetic analog or placebo was administered and multiple samplings were performed to assess the profile of GH, postprandial glucose level and electrocardiogram after 60 minutes of the application of the GHRH(1-29)NH2 synthetic analog/placebo. Eight hours after drug administration, samples were obtained to determine IGF-1 level, thyroid hormones and routine analysis. After 30 days of admission, all the volunteers returned for new clinical evaluation to record any adverse events that could have occurred from the last day of hospitalization period and to take a blood sample for later determination of anti-GHRH(1-29)NH2 synthetic analog antibodies.
Serum human GH was measured by using a commercial DSL-1900 ACTIVE® Human Growth Hormone Coated-Tube Immunoradiometric Assay Kit purchased from Diagnostic Systems Laboratories, Inc., Texas, USA. Serum IGF-1 was measured using DSL-9400 ACTIVE® Free Insulin-Like Growth Factor-I Coated-Tube IRMA Kit purchased from Diagnostic Systems Laboratories.
To determine MED, GH secretion curves were drawn and the area under the curve (AUC) calculated for each study drug dose.

[1] = system: antibodies to the GHRH(1-29)NH2 synthetic analog; assay: Phase I/II study: human anti-GHRH antibodies ELISA; assay type: in vivo; details: Day 30 sample, at the dilution tested
Protocol: On Day 30, an ambulatory control visit took place. Clinical assessments were performed and adverse events were reported. A blood sample was taken to determine the presence of antibodies the GHRH(1-29)NH2 synthetic analog.
as §1
Human anti-GHRH antibodies were measured in ELISA developed LAB Pre-Clinical Research Intl.

[2] = system: malnourished subjects with CKD; assay: Phase II CKD: Subjective Global Assessment (SGA); assay type: in vivo, human; details: for SGA mild to moderately malnourished: (%) / SGA mild to moderately malnourished: n / SGA severely malnourished: (%) / SGA severely malnourished: n / SGA well nourished: (%) / SGA well nourished: n: ITT
Description: An SGA was an overall evaluation of a subject by an experienced clinician that correlated with the subjective and objective aspects of a medical history and physical examination. An SGA was completed at both the screening and baseline visits, on Day 28 and at the follow-up visit. Review of the medical history included an assessment of weight and weight change, dietary intake, gastrointestinal symptoms, disease state, and the subject's functional status. The SGA also included a physical examination for negative changes in body composition such as loss of subcutaneous fat or muscle wasting, and signs of oedema or ascites (nutrition-related). After evaluation, the subject was classified as well nourished (A), mild to moderately malnourished (B), or severely malnourished (C).

[3] = Baseline, listed as GHRH(1-29)NH2 synthetic analog

## CC[C@H](C)[C@H](NC(=O)[C@H](C)NC(=O)[C@H](CC(=O)O)NC(=O)[C@@H](C)NC(=O)[C@@H](N)Cc1ccc(O)cc1)C(=O)N[C@@H](Cc1ccccc1)C(=O)N[C@H](C(=O)N[C@@H](CC(N)=O)C(=O)N[C@@H](CO)C(=O)N[C@H](Cc1ccc(O)cc1)C(=O)N[C@@H](CCCNC(=N)N)C(=O)N[C@@H](CCCCN)C(=O)N[C@H](C(=O)N[C@@H](CC(C)C)C(=O)N[C@H](C)C(=O)N[C@@H](CCC(N)=O)C(=O)N[C@@H](CC(C)C)C(=O)N[C@@H](CO)C(=O)N[C@@H](C)C(=O)N[C@@H](CCCNC(=N)N)C(=O)N[C@@H](CCCCN)C(=O)N[C@@H](CCCCN)C(=O)N[C@@H](CC(C)C)C(=O)N[C@@H](CCC(N)=O)C(=O)N[C@@H](CC(=O)O)C(=O)N[C@H](C(=O)N[C@@H](CCSC)C(=O)N[C@@H](CO)C(=O)N[C@@H](CCCNC(=N)N)C(N)=O)[C@@H](C)CC)C(C)C)[C@@H](C)O [GHRH analog #5, [D-Ala^2, D-Tyr^10, D-Ala^15, Lys^22] hGHRH(1-29)-NH2] (H-Y[dA]DAIFTNS[dY]RKVL[dA]QLSARKKLQDIMSR-NH2)
GH and IGF-1 secretion; 5 μg/kg body weight
  AUC of GH level in the first 12 hours: 61.76
GH and IGF-1 secretion; 10 μg/kg body weight
  AUC of GH level in the first 12 hours: 71.25
GH and IGF-1 secretion; 15 μg/kg body weight
  AUC of GH level in the first 12 hours: 135.17
GH and IGF-1 secretion; 25 μg/kg body weight
  AUC of GH level in the first 12 hours: 149.48
GH and IGF-1 secretion; Day 1 of treatment
  IGF-1 mean level: 156 ng/mL
GH and IGF-1 secretion; Day 5 of treatment
  IGF-1 mean level: 231 ng/mL
GH and IGF-1 secretion; any dose
  GH levels compared to placebo: unequivocally higher at any dose
[1]
  Detectable antibodies to the GHRH(1-29)NH2 synthetic analog: None of the subject samples tested had detectable antibodies
[2]; Baseline
  SGA mild to moderately malnourished: (%): (69.2%)
  SGA mild to moderately malnourished: n: 9
  SGA severely malnourished: (%): (7.7%)
  SGA severely malnourished: n: 1
  SGA well nourished: (%): (23.1%)
  SGA well nourished: n: 3
[2]; [3]
  SGA severely malnourished: (%): 7.7%
  SGA well nourished: (%): 23.1%
[2]; Day 28
  SGA mild to moderately malnourished: (%): (16.7%)
  SGA mild to moderately malnourished: n: 2
  SGA severely malnourished: (%): (8.3%)
  SGA severely malnourished: n: 1
  SGA well nourished: (%): (75.0%)
  SGA well nourished: n: 9
[2]; Day 28, listed as GHRH(1-29)NH2 synthetic analog
  SGA well nourished: (%): 75.0%
[2]; after 28 days of therapy
  Mild to moderate malnourished patients (of 9) who became well nourished: 6

Reference: patent US20090088380A1, “GHRH ANALOGS AND THERAPEUTIC USES THEREOF” (priority 2007, published 2009)
